Paper PMC11562385 (RSC Chemical Biology, 2024)
Like-named read-outs stand apart in the source and are kept apart here. Bridge positions count the residues as written; N and C are the ends. Square brackets hold non-standard residues; d marks the D form. Peptide text beside a SMILES is read from it. * marks the point of attachment. Dab = NCC[C@H](N)C(=O)O; X1 = CN(C)C/C=C/C(=O)*

Assays:
PD1:PDL1 interaction = molecular target: T1, PD1:PDL1 interaction (Homo sapiens, UniProt Q15116); test: PD1/PDL1 immunoblocking ELISA (BPS Bioscience kit cat # 72005); format: binding; settings: for LE (ligand efficiency): LE = -RTln(EC50)/HA, HA = non-hydrogen atoms omitting the strap (RWV•••VWE)
T1 construct: purchased BPS Bioscience 72005

[1] = Variable-temperature CD melting curves (CD-melts at 228±2 nm and 202±2 nm), individual and global two-state fits; format: physicochemical; settings: for ΔGF0: CD-melt at 228±2 nm, individual two-state Gibbs-Helmholtz fit (Origin 9.0), phosphate buffer 15 mM pH 6.5 ± MeOH; for ΔGF0 / DHm (fitted value, results from OriginPro) / Tm (fitted value, results from OriginPro): 0-95 °C; for Tm / Hairpin %-fold 291K / Hairpin %-fold 310K: Table S5, individual fit; for Tm: 228±2 nm; for -TΔSF0 / ΔCpF0 / ΔHF0 / ΔHm: as E16; for VT-CD %-fold: folded fraction (χF) at 25 °C from CD-melts, (R) regular / (B) bulged fold; for VT-CD %-fold / VT-CD Tm (°C): phosphate buffer 15 mM pH 6.5, up to 20% MeOH; for %fold 291K: fraction folded at 291 K from two-state fit of CD-melt; for VT-CD Tm (°C): melting temperature from CD-melts; for DHm (fitted value, OriginPro two-state fit of CD-melt) / Tm (fitted value, OriginPro two-state fit of CD-melt): variable-temperature CD melt 0-95 °C, θ - θcoil(95) vs T, l = 0.1 cm, individual two-state fit; for DHm (fitted value, results from OriginPro) / Tm (fitted value, results from OriginPro): two-state fit of the CD melt θ - θcoil(95) vs T, peptide c 3.2e-5 to 5e-5 M
Summary of the method: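 Far-UV CD melts (0 to 95 °C) at 15-120 µM peptide in 15 mM phosphate buffer, concentration set by Trp/Tyr absorbance at 280 nm; CD-exciton intensity taken as %-folding probe. Melting curves fitted individually and globally to a two-state model.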

[2] = ELISA, mean of three independent experiments, read-out: EC50 Value

T1 sequence (Q15116 25-167 limits assumed): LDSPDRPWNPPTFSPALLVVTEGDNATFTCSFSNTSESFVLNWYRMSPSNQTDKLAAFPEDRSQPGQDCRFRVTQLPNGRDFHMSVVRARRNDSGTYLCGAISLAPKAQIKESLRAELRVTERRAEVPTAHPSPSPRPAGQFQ

Row | Structure (SMILES) | LE (ligand efficiency) (PD1:PDL1 interaction) | ΔGF0 [1] [kcal/mol] | Tm [1] [oC] | Hairpin %-fold 291K ([1]; 291 K) [%] | Hairpin %-fold 310K [1] [%] | -TΔSF0 [1] [kcal/mol] | ΔCpF0 [1] [cal.deg-1.mol-1] | ΔHF0 [1] [kcal/mol] | ΔHm [1] [kcal/mol] | VT-CD %-fold [1] | %fold 291K [1] [%] | VT-CD Tm (°C) [1] [°C] | DHm (fitted value, OriginPro two-state fit of CD-melt) [1] [kcal/mol] | Tm (fitted value, OriginPro two-state fit of CD-melt) [1] [K] | EC50 (PD1:PDL1 interaction; [2]) [nM] | DHm (fitted value, results from OriginPro) ([1]; l 0.1 cm) [kcal/mol] | Tm (fitted value, results from OriginPro) ([1]; l 0.1 cm) [K] | also measured
1 | CC(C)[C@H](NC(=O)[C@H](Cc1c[nH]c2ccccc12)NC(=O)[C@@H](N)CCCNC(=N)N)C(=O)N[C@@H](C)C(=O)N[C@@H](CCCNC(=N)N)C(=O)N[C@@H](CCCNC(=N)N)C(=O)N[C@@H](CC(=O)O)C(=O)N[C@@H](Cc1ccc(O)cc1)C(=O)N[C@@H](CCCNC(=N)N)C(=O)N[C@@H](Cc1ccccc1)C(=O)N[C@@H](CC(=O)O)C(=O)N[C@@H](CCNC(=O)/C=C/CN(C)C)C(=O)NCC(=O)N[C@@H](Cc1ccccc1)C(=O)N[C@@H](CC(=O)O)C(=O)N[C@@H](Cc1ccc(O)cc1)C(=O)N[C@@H](Cc1c[nH]c2ccccc12)C(=O)N[C@H](C(=O)N[C@@H](Cc1c[nH]c2ccccc12)C(=O)N[C@@H](CCC(=O)O)C(=O)O)C(C)C [2cc] (H-RWVARRDYRFD[Dab](X1)GFDYWVWE-OH; N-terminus assumed) | 0.13 | -0.93 ± 0.002 | 48.7 | 87 ± 1 | 70 ± 1 | 8.50 ± 0.04 | -268 ± 2 | -9.43 ± 0.04 | -15.8 ± 0.04 |  |  |  |  |  |  |  |  | Tm 228 nm Glob. ([1]; global fit (shared maximum molar ellipticity), 228 nm): 51.7 oC; Tm 202 nm Glob. ([1]; global fit, 202 nm): 9.7 oC; χF (291 K) 202 nm Glob. ([1]; global fit, 202 nm, 291 K): 47%; χF (291 K) 228 nm Glob. ([1]; global fit, 228 nm, 291 K): 95%; χF (291 K) 202 nm Indiv. ([1]; individual fit, 202 nm, 291 K): 83%; χF (291 K) 228 nm Indiv. ([1]; individual fit, 228 nm, 291 K): 88%; Tm 228 nm Indiv. ([1]; individual fit, exciton band 228 nm): 49.8 oC; Tm 202 nm Indiv. ([1]; individual fit, β-bulge band 202 nm): 44.3 oC; DHm (fitted value, OriginPro) ([1]; two-state fit of the CD melt (θ - θcoil(95) vs T, 0-95 °C), l 0.1 cm, enthalpy of folding at Tm): -15.8096 kcal/mol
2 | CSCC[C@H](NC(=O)[C@H](CC(=O)O)NC(=O)CNC(=O)[C@H](CCCNC(=N)N)NC(=O)[C@H](Cc1ccc(O)cc1)NC(=O)[C@H](CC(=O)O)NC(=O)[C@H](CCCNC(=N)N)NC(=O)[C@H](CCCNC(=N)N)NC(=O)[C@H](C)NC(=O)[C@@H](NC(=O)[C@H](Cc1c[nH]c2ccccc12)NC(=O)[C@@H](N)CCCNC(=N)N)C(C)C)C(=O)NCC(=O)N[C@@H](Cc1ccccc1)C(=O)N[C@@H](CC(=O)O)C(=O)N[C@@H](Cc1ccc(O)cc1)C(=O)N[C@@H](Cc1c[nH]c2ccccc12)C(=O)N[C@@H](Cc1c[nH]cn1)C(=O)N[C@@H](Cc1c[nH]c2ccccc12)C(=O)N[C@@H](CCC(=O)O)C(=O)O [2d] (H-RWVARRDYRGDMGFDYWHWE-OH) | 0.06 | -1.59 ± 0.01 | 50.9 | 97 ± 1 | 80 ± 1 | 18.2 ± 0.2 | 0 | -19.8 ± 0.2 | -19.8 ± 0.07 | 97% (B) | 97 | 51 | -19.8087 | 324.048 |  |  |  | 
3 | CSCC[C@H](NC(=O)[C@H](CC(=O)O)NC(=O)[C@H](Cc1ccccc1)NC(=O)[C@H](CCCNC(=N)N)NC(=O)[C@H](Cc1ccc(O)cc1)NC(=O)[C@H](CC(=O)O)NC(=O)[C@H](CCCNC(=N)N)NC(=O)[C@H](CCCNC(=N)N)NC(=O)[C@H](C)NC(=O)[C@@H](NC(=O)[C@H](Cc1c[nH]c2ccccc12)NC(=O)[C@@H](N)CCCNC(=N)N)C(C)C)C(=O)NCC(=O)N[C@@H](Cc1ccccc1)C(=O)N[C@@H](CC(=O)O)C(=O)N[C@@H](Cc1ccc(O)cc1)C(=O)N[C@@H](Cc1c[nH]c2ccccc12)C(=O)N[C@@H](Cc1c[nH]cn1)C(=O)N[C@@H](Cc1c[nH]c2ccccc12)C(=O)N[C@@H](CCC(=O)O)C(=O)O [2e] (H-RWVARRDYRFDMGFDYWHWE-OH) | 0.06 | 0.088 ± 0.02 | 3.96 | 48 ± 1 | 42 ± 1 | 2.40 ± 0.02 | -107±5 | -2.31 ± 0.03 | -0.070 ± 0.6 | 48% (B) | 48 | 4 | -0.0700474 | 277.107 |  |  |  | 
4 | CSCC[C@H](NC(=O)[C@H](CC(=O)O)NC(=O)CNC(=O)[C@H](CCCNC(=N)N)NC(=O)[C@H](Cc1ccc(O)cc1)NC(=O)[C@H](CC(=O)O)NC(=O)[C@H](CCCNC(=N)N)NC(=O)[C@H](CCCNC(=N)N)NC(=O)[C@H](CCCCN)NC(=O)[C@@H](NC(=O)[C@H](Cc1c[nH]c2ccccc12)NC(=O)[C@@H](N)CCCNC(=N)N)C(C)C)C(=O)NCC(=O)N[C@@H](Cc1ccccc1)C(=O)N[C@@H](CC(=O)O)C(=O)N[C@@H](Cc1ccc(O)cc1)C(=O)N[C@@H](Cc1c[nH]c2ccccc12)C(=O)N[C@H](C(=O)N[C@@H](Cc1c[nH]c2ccccc12)C(=O)N[C@@H](CCC(=O)O)C(=O)O)C(C)C [2f] (H-RWVKRRDYRGDMGFDYWVWE-OH) | 0.06 | -1.33 ± 0.01 | 65.4 | 92 ± 1 | 85 ± 1 | 5.76 ± 0.07 | -208 ±2 | -7.09 ± 0.07 | -15.5 ± 0.04 | 92% (B) | 92 |  | -15.5228 | 338.533 | 862 |  |  | 
5 | CSCC[C@H](NC(=O)[C@H](CC(=O)O)NC(=O)CNC(=O)[C@H](CCCNC(=N)N)NC(=O)[C@H](Cc1ccc(O)cc1)NC(=O)[C@H](CC(=O)O)NC(=O)[C@H](CCCNC(=N)N)NC(=O)[C@H](CCCNC(=N)N)NC(=O)[C@H](C)NC(=O)[C@@H](NC(=O)[C@H](Cc1c[nH]c2ccccc12)NC(=O)[C@@H](N)CCCNC(=N)N)C(C)C)C(=O)NCC(=O)N[C@@H](Cc1ccccc1)C(=O)N[C@@H](CC(N)=O)C(=O)N[C@@H](Cc1ccc(O)cc1)C(=O)N[C@@H](Cc1c[nH]c2ccccc12)C(=O)N[C@H](C(=O)N[C@@H](Cc1c[nH]c2ccccc12)C(=O)N[C@@H](CCC(=O)O)C(=O)O)C(C)C [2j] (H-RWVARRDYRGDMGFNYWVWE-OH) | 0.07 | -1.63 ± 0.01 | 57.8 | 97 ± 1 | 84 ± 1 | 14.3 ± 0.09 | -29 ± 3 | -15.9 ± 0.02 | -16.8 ± 0.03 | 97% (B) |  | 58 |  |  |  | -16.8394 | 330.952 | EC50 (PD1:PDL1 interaction; PD1:PDL1 inhibition EC50, ELISA, PDL1-coated plate, biotin-labeled human PD-1, 2 h rt, chemiluminescence, Hill fit, mean ± SD, n = 3, SD): 100 ± 10 nM
6 | CSCC[C@@H]1NC(=O)[C@H](CC(=O)O)NC(=O)[C@H](Cc2ccccc2)NC(=O)[C@H](CCCNC(=N)N)NC(=O)[C@H](Cc2ccc(O)cc2)NC(=O)[C@H](CC(=O)O)NC(=O)[C@H](CCCNC(=N)N)NC(=O)[C@H](CCCNC(=N)N)NC(=O)[C@H](C)NC(=O)[C@@H](NC(=O)[C@H](Cc2c[nH]c3ccccc23)NC(=O)[C@@H](N)CCCNC(=N)N)CSSC[C@@H](C(=O)N[C@@H](Cc2c[nH]c3ccccc23)C(=O)N[C@@H](CCC(=O)O)C(=O)O)NC(=O)[C@H](Cc2c[nH]c3ccccc23)NC(=O)[C@H](Cc2ccc(O)cc2)NC(=O)[C@H](CC(=O)O)NC(=O)[C@H](Cc2ccccc2)NC(=O)CNC1=O [2l] (H-RWCARRDYRFDMGFDYWCWE-OH; disulfide 3-18) | 0.06 | -0.77 ± 0.01 | 66.0 | 82 ± 1 | 71 ± 1 | 4.69 ± 0.05 | -44 ± 2 | -5.46 ± 0.05 | -7.29 ± 0.04 |  |  |  |  |  | 584 | -7.28521 | 339.181 | 
